Key:
[1] = system: response element RARE of RARβ gene, endogenic retinoic receptors, HRLN lineage; experiment: HRLN transactivation (RARE-luciferase, stably transfected HeLa); format: cell-based; details: for Emax: Homo sapiens, HeLa, read-out: HRLN transactivation, E max
Summary of the method: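 Luciferase reporter read-out, in duplicate and shielded from light, in phenol red-free DMEM plus 3% dextran-charcoal-stripped FCS. The HeLa-derived line expresses endogenous retinoid receptors and stably harbours luciferase under the natural RARβ-gene RARE (RARE3-tk-Luc).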

[2] = system: A-427 human pulmonary cancer cells; experiment: MTT test, proliferation of A-427; details: for activity at 0.01 µM / activity at 1 µM / activity at 100 µM: Homo sapiens, A-427, 72 h, read-out: level of proliferation
[3] = system: Gal4-RAR (RARα, RARβ, RARγ); experiment: Chimerical receptors Gal4-RAR, overall profile; format: cell-based
RARγ-ERcassette = experiment: Transactivation, chimerical receptor RARγ-ERcassette (HeLa); format: cell-based; details: TTNPB 10^-8 M = 100
Summary of the method: (§1)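 Read-out: ERE-driven luciferase in HeLa cells, normalised to a co-transfected CMV-β-galactosidase control. Receptor is RAR with its C domain swapped for the oestrogen receptor DNA-binding domain, keeping AF-1/AF-2 cooperation. Effector exposure 16 h, beginning 24 h post-transfection.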

[4] = system: human mammary tumoral lineage T-47D; experiment: Clonogenic test (soft agar), growth of cellular colonies; format: cell-based; details: T-47D; for activity at 0.01 µM: 10^-8 M; for activity at 0.001 µM: 10^-9 M; for activity at 0.0001 µM: 10^-10 M; for effect on growth of cellular colonies (in words): soft agar
Summary of the method: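 Colony counts (clones over 100 μm², MTT-stained for at least 3 h) are expressed as a percentage of the untreated control. T-47D cells grew anchorage-independently between a 0.5% agar base and a 0.3% agar top layer. Cultures were incubated for 21 days after treatment at 37 °C with 5% CO2.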

RARβ-ERcassette = experiment: Transactivation, chimerical receptor RARβ-ERcassette (HeLa); format: cell-based; details: TTNPB 10^-8 M = 100
Summary of the method: as §1

[5] = Homo sapiens, T47D, 504 h, 21 days, control = 100%, read-out: mean number of cellular colonies in relation to control

Structure (SMILES)	HRLN transactivation (in words) [1]	Emax [1] [%]	activity at 0.01 µM [2] [%]	activity at 1 µM [2] [%]	activity at 100 µM [2] [%]	Gal-RAR agonist profile (in words) [3]	RAR-ERcassette RARγ transactivation (RARγ-ERcassette; 10^-6 M) [%]	RAR-ERcassette RARγ transactivation (RARγ-ERcassette; 10^-7 M) [%]	RAR-ERcassette RARγ transactivation (RARγ-ERcassette; 10^-8 M) [%]	activity at 0.01 µM [4, 5] [%]	activity at 0.001 µM [4, 5] [%]	activity at 0.0001 µM [4, 5] [%]	effect on growth of cellular colonies (in words) [4]	RAR-ERcassette RARβ transactivation (RARβ-ERcassette; 10^-6 M) [%]	RAR-ERcassette RARβ transactivation (RARβ-ERcassette; 10^-7 M) [%]	RAR-ERcassette RARβ transactivation (RARβ-ERcassette; 10^-8 M) [%]	activity at 0.1 µM ([4]; Homo sapiens, T47D, 504 h, 10^-7 M, 21 days, control = 100%, read-out: mean number of cellular colonies in relation to control) [%]	effect on cellular increase, A-427 (in words) ([2]; MTT test)
CC1(C)CCC(C)(C)c2cc(/C=C(\c3ccc(C(=O)O)cc3)C(F)(F)F)ccc21 [CB36493, (E) 4-[1-trifluoromethyl-2-(5,6,7,8-tetrahydro-5,5,8,8-tetramethyl-2-naphthalenyl)-1-ethenyl]benzoic acid]	induce a transactivation close to that of TTNPB	97	89.9	87.2	1.6	partial agonists at 1 μM for the three RAR receptors	26	5	0	17.4 ± 2	24.8 ± 0.5	35.8 ± 3.2	as active as the reference products CB13407 (9-cis RA) and LGD1069	205	34	0		
C/C(=C/c1ccc2c(c1)C(C)(C)CCC2(C)C)c1ccc(C(=O)O)cn1 [CB38416, (Z) 2-[1-(5,6,7,8-tetrahydro-5,5,8,8-tetramethyl-2-naphthalenyl)-2-propenyl]pyridinyl-5-carboxylic acid]	induce a transactivation close to that of TTNPB	81	106	105	24.1	partial agonist for RARα and RARβ but complete for RARγ	62	14	4	15.3 ± 1.7	20 ± 0.2		as active as the reference products CB13407 (9-cis RA) and LGD1069	198	57	10	11.6 ± 1.9	
C/C(=C/c1ccc2c(c1)C(C)(C)CCC2(C)C)c1ccc(-c2nnn[nH]2)cc1 [CB92834]	very feebly active	21	80.5	78.3	3.1	not RAR agonists	0	7	2	38 ± 2	58.9 ± 3.7	82.5 ± 12	global inhibiting and dose dependent activity as great as that obtained with the best products in the trans series (E)	43	36	0		show activity on the increase of these two lineages
